Values quoted from earlier work in patent US20040002514A1, “Topical use of hydroxyeicosatetraenoic acid compounds to treat psoriasis” (Alcon, Inc., priority 2002, published 2004).

Assays:
[1] = system: IL-6 synthesis by bone marrow stromal cells
[2] = system: IL-8 production by human bone marrow stromal cells; conditions: 1 μM to 0.1 nM
[3] = system: leukotriene B4 production or its activity
colitis = conditions: in vivo

## CCCCC[C@H](O)/C=C/C=C\C/C=C\C/C=C\CCCC(=O)O [15-HETE, 15-Hydroxyeicosatetraenoic acid]
[1]
  effect on spontaneous, serum- and cytokine-induced IL-6 synthesis: no effect
[2]
  effect on spontaneous and serum-induced production of IL-8: no effect
[3]
  effect on leukotriene B4 production or its activity: inhibitory effects
colitis
  anti-inflammatory properties in colitis: minor anti-inflammatory properties
Psoriatic skin lesions; injected into psoriatic skin lesions
  improvement of psoriasis: can improve psoriasis
Psoriatic skin lesions; intralesional injection, 0.1 ml of 10 lmol/L
  amount required to cause a clinical effect: 300 ng
